Source: patent US20250143306A1, “COMBINATION FOR IMPROVING PLANT GROWTH AND/OR YIELD, FORMULATION AND METHOD FOR INCREASING PLANT GROWTH, STRESS RESISTANCE, AND YIELDS, AND USE THEREOF” (INSTITUTE OF EXPERIMENTAL BOTANY CAS CR, V.V.I., priority 2022, published 2025)
Marks after values point to notes of the source that are not given here.

Experiments:
Assay type in all cases: in vivo
[1] = test system: Oilseed rape variety Elgar (2018) and Elizze (2019); assay: Grain yield of field-grown oilseed rape (Example 5); settings: MTU 0.4 g/ha, pyroglutamic acid 40 g/ha
Method: Oilseed rape variety Elgar (2018) and Elizze (2019) were grown in the UK in the years 2018 and 2019. Experiments were performed in accordance with the Good Experimental Practice criteria. MTU was applied by spraying at a concentration of 10 μM (2 mg/L) and a dosage of 200 L/ha (0.4 g/ha of MTU). Pyroglutamic acid was used at 40 g/ha, applied at a dosage of 200 L/ha in a water solution.

[2] = test system: wheat (Triticum aestivum) cv. Balitus; assay: Root and shoot dry weight and total chlorophyll content of wheat under drought stress conditions (Example 2)
Method: To investigate the effect of the combinations on the weight parameters, and the total content of chlorophyll, seeds of wheat (Triticum aestivum) cv. Balitus were sown in a hydroponic growing system (Araponics, Liege, Belgium) using Hoagland's solution (control). Twenty days after sowing plants (except for control plants) were sprayed by either MTU (10 μM) or by nitrogen utilization enhancers alone or with a combination of MTU (10 μM) and nitrogen utilization enhancers. The plants were grown in a glasshouse at 20-28° C. under a combination of natural and artificial light. Since the treatment (20 days after sowing), the plants received low water doses. […] The root dry weight (RDW), shoot dry weight (SDW), and total chlorophyll content (TCC) of at least 25 plants were measured at the end of the experiment—45 days after the plants had been sown. RDW and SDW were recorded after drying the plants at 70° C. for 2 days. The chlorophyll content of each plant was measured by SPAD meter reading at the end of the experiment and TCC was calculated as SPAD value per SDW.

[3] = test system: Winter wheat variety Barrel; assay: Grain yield of field-grown winter wheat (Example 3); settings: MTU 0.4 g/ha, pyroglutamic acid 40 g/ha, UK 2019
Method: (§1) The field experiments were done in 2019 in the UK and they were performed in accordance with the Good Experimental Practice criteria. Winter wheat variety Barrel was used. MTU was applied by spraying at a concentration of 10 μM (2 mg/L) and a dosage of 200 L/ha (0.4 g/ha of MTU). Pyroglutamic acid was used at 40 g/ha, applied at a dose of 200 l/ha in a water solution.

[4] = test system: sunflower (Helianthus sp. L.); assay: Seed yield of field-grown sunflower (Example 6); settings: Hungary 2020, MTU 2 mg/L at 300 L/ha, pyroglutamic acid 50 g/ha
Method: Seeds of sunflower (Helianthus sp. L.) were sown in Hungary in 2020 in accordance with the Good Experimental Practice criteria. MTU was applied by spraying at a concentration of 10 μM (2 mg/L) and a dosage of 300 L/ha. Pyroglutamic acid was used at 50 g/ha, applied at a dosage of 300 L/ha in a water solution.

[5] = test system: wheat (Triticum aestivum) cv. Balitus; assay: Root and shoot dry weight and leaf nitrogen content of hydroponically grown wheat under optimal conditions (Example 1)
Method: To investigate the effect of the combinations on the weight parameters, the seeds of wheat (Triticum aestivum) cv. Balitus were sown in a hydroponic growing system (Araponics, Liege, Belgium) using Hoagland's solution (control). Twenty days after sowing, plants (except for control plants) were sprayed by aqueous solution of either MTU (10 μM) or by a nitrogen utilization enhancer alone or by a combination of MTU (10 μM) with the nitrogen utilization enhancer. The plants were grown in the Czech Republic in a glasshouse at 16-25° C. under natural and artificial light during the winter period. The root dry weight (RDW), shoot dry weight (SDW) and the nitrogen content in the leaves of at least 30 plants were measured 45 days after the plants had been sown. RDW and SDW were recorded after drying the plants at 70° C. for 2 days.

[6] = test system: Winter wheat variety Barrel; assay: Nitrogen content in grains of field-grown winter wheat, Kjeldahl method (Example 4); settings: MTU 0.4 g/ha, pyroglutamic acid 40 g/ha
Method: as §1
Wheat grains used to make bread require a grain nitrogen content of 2.1% (w/w) or higher. Grains from each sample treatment from the experiment described in Example 3 were analyzed for nitrogen content. The analysis was done using a Kjeldahl method (Kjeldahl, J. (1883) “New method for the determination of nitrogen in organic substances), Zeitschrift für analytische Chemie, 22 (1): 366-383.

[7] = test system: winter wheat plants; assay: Root dry weight of winter wheat, method of testing the synergistically effective amounts of MTU and PCA (optimal conditions)
Method: The synergistically effective amounts of MTU and pyroglutamic acid (PCA) were determined by the method of determining the root growth of winter wheat plants. […].
As a first control, MTU was applied to another group of the winter wheat plants at the following amounts: 1, 2, 4 and 8 mg/liter of the composition.
As a second control, PCA was applied to another group of the winter wheat plants at the amount of 200 mg/liter of the composition.
As a negative control, another group of the winter wheat plants was applied only water in the same amount as the compositions applied to the above-described groups.
The plants were then grown at 20° C. under natural light for a period of 45 days. The root dry weight (RDW) of at least 30 plants was measured 45 days after the plants had been sown for each group. RDW was recorded after drying the plants at 70° C. for 2 days.
The relative increase in RDW was calculated as % of control (Table 1). The % of control for combinations containing MTU: PCA in ratios 1:200, 2:200 and 4:200 was higher than the sum of % of control of only PCA group (+8.8%) with the MTU group (1, 2 or 4 mg).

[8] = UK 2018, application at BBCH 13
[9] = UK 2018, application at BBCH 65
[10] = UK 2019, application at BBCH 65
[11] = UK 2019, application at BBCH 70
[12] = 200 mg in 1 liter of composition

COCCNC(=O)Nc1cnns1 [MTU, 1-(2-methoxyethyl)-3-(1,2,3-thiadiazol-5yl)urea]
Yield % of control [1, 8]: +2.9%
Yield (grain) [1, 8]: 3.90 t/ha
Yield % of control [1, 9]: +4.8%
Yield (grain) [1, 9]: 4.61 t/ha
Yield % of control [1, 10]: +6.2%
Yield (grain) [1, 10]: 3.93 t/ha
Yield % of control [1, 11]: +3.8%
Yield (grain) [1, 11]: 3.84 t/ha
RDW (root dry weight) ([2]; concentration 2 mg/L): 0.74 g
SDW (shoot dry weight) ([2]; concentration 2 mg/L): 1.28 g
Yield % of control ([3]; application at BBCH 32): +2.4%
Yield (grain) ([3]; application at BBCH 32): 10.225 t/ha
Yield % of control ([3]; application at BBCH 39): +2.4%
Yield (grain) ([3]; application at BBCH 39): 10.230 t/ha
Yield % of control ([3]; application at BBCH 50-55): +0.5%
Yield (grain) ([3]; application at BBCH 50-55): 10.033 t/ha
Yield % of control ([4]; application at BBCH 16-18): +12.0%
Yield (seed) ([4]; application at BBCH 16-18): 3.08 t/ha
Yield % of control ([4]; application at BBCH 55): +4.7%
Yield (seed) ([4]; application at BBCH 55): 2.88 t/ha
Nitrogen content in the leaves ([5]; concentration 2 mg/L): 4.47 weight %
RDW % of control ([5]; concentration 2 mg/L): +3.8%
RDW (root dry weight) ([5]; concentration 2 mg/L): 0.83 g
SDW % of control ([5]; concentration 2 mg/L): +3.9%
SDW (shoot dry weight) ([5]; concentration 2 mg/L): 1.58 g
Nitrogen content % of control ([6]; application at BBCH 32): −9.5%
Nitrogen content (%) of grains ([6]; application at BBCH 32): 1.82%
Nitrogen content % of control ([6]; application at BBCH 39): −2.0%
Nitrogen content (%) of grains ([6]; application at BBCH 39): 1.97%
Nitrogen content % of control ([6]; application at BBCH 50-55): −10.0%
Nitrogen content (%) of grains ([6]; application at BBCH 50-55): 1.81%
RDW % of control ([7]; 1 mg in 1 liter of composition): +5.5%
RDW (root dry weight) ([7]; 1 mg in 1 liter of composition): 0.96 g
RDW % of control ([7]; 2 mg in 1 liter of composition): +7.7%
RDW (root dry weight) ([7]; 2 mg in 1 liter of composition): 0.98 g
RDW % of control ([7]; 4 mg in 1 liter of composition): +15.4%
RDW (root dry weight) ([7]; 4 mg in 1 liter of composition): 1.05 g
RDW % of control ([7]; 8 mg in 1 liter of composition): +18.1%
RDW (root dry weight) ([7]; 8 mg in 1 liter of composition): 1.07 g

O=C1CC[C@@H](C(=O)O)N1 [Pyroglutamic acid, pyroglutamic acid]
Yield % of control [1, 8]: +5.0%
Yield (grain) [1, 8]: 3.97* t/ha
Yield % of control [1, 9]: +23.9%
Yield (grain) [1, 9]: 5.45* t/ha
Yield % of control [1, 10]: +3.5%
Yield (grain) [1, 10]: 3.83 t/ha
Yield % of control [1, 11]: +5.4%
Yield (grain) [1, 11]: 3.90 t/ha
RDW % of control ([2]; concentration 200 mg/L): +11.9%
RDW (root dry weight) ([2]; concentration 200 mg/L): 0.75 g
SDW % of control ([2]; concentration 200 mg/L): −1.6%
SDW (shoot dry weight) ([2]; concentration 200 mg/L): 1.2 g
RDW % of control ([2]; concentration 400 mg/L): +14.9%
RDW (root dry weight) ([2]; concentration 400 mg/L): 0.77 g
SDW % of control ([2]; concentration 400 mg/L): +0.8%
SDW (shoot dry weight) ([2]; concentration 400 mg/L): 1.23 g
Yield % of control ([3]; application at BBCH 32): +1.8%
Yield (grain) ([3]; application at BBCH 32): 10.167 t/ha
Yield % of control ([3]; application at BBCH 39): +2.0%
Yield (grain) ([3]; application at BBCH 39): 10.183 t/ha
Yield % of control ([3]; application at BBCH 50-55): +2.6%
Yield (grain) ([3]; application at BBCH 50-55): 10.241 t/ha
Yield % of control ([4]; application at BBCH 16-18): +5.0%
Yield (seed) ([4]; application at BBCH 16-18): 2.89 t/ha
Yield % of control ([4]; application at BBCH 55): +6.3%
Yield (seed) ([4]; application at BBCH 55): 2.92 t/ha
RDW % of control ([5]; concentration 200 mg/L): +6.3%
RDW (root dry weight) ([5]; concentration 200 mg/L): 0.85 g
SDW % of control ([5]; concentration 200 mg/L): +6.8%
SDW (shoot dry weight) ([5]; concentration 200 mg/L): 1.63 g
Nitrogen content in the leaves ([5]; concentration 400 mg/L): 4.65 weight %
RDW % of control ([5]; concentration 400 mg/L): +13.8%
RDW (root dry weight) ([5]; concentration 400 mg/L): 0.91 g
SDW % of control ([5]; concentration 400 mg/L): +10.5%
SDW (shoot dry weight) ([5]; concentration 400 mg/L): 1.68 g
Nitrogen content % of control ([6]; application at BBCH 32): −7.0%
Nitrogen content (%) of grains ([6]; application at BBCH 32): 1.87%
Nitrogen content % of control ([6]; application at BBCH 39): −5.5%
Nitrogen content (%) of grains ([6]; application at BBCH 39): 1.90%
Nitrogen content % of control ([6]; application at BBCH 50-55): −10.0%
Nitrogen content (%) of grains ([6]; application at BBCH 50-55): 1.81%
RDW % of control [7, 12]: +8.8%
RDW (root dry weight) [7, 12]: 0.99 g
